These results are taken from patent US8772509B2, “Indole compounds as positive allosteric modulators of the muscarinic receptor” (Vanderbilt University, priority 2010, dated 2014).

The assay has as its target T1, mAChR M1 (UniProt P08482).
T1 sequence (P08482 1-460): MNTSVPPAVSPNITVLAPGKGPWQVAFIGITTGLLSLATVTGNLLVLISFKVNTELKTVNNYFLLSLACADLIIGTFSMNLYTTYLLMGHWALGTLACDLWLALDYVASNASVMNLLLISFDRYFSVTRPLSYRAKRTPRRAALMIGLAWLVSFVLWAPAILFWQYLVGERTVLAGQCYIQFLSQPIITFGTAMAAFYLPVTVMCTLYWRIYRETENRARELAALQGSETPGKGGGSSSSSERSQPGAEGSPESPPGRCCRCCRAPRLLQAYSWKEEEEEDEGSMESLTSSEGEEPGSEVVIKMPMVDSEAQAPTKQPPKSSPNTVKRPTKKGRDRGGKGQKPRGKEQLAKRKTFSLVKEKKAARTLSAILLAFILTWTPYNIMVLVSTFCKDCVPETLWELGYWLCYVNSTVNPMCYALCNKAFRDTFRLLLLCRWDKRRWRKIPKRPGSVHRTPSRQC
In words: mAChR M1 cell-based functional assay (calcium mobilization, Fluo-4, FDSS). To be noted: for Efficacy (% ACh maximum at 30 μM): maximal calcium flux response from curve fit or response at 30 μM compound, as % of the EC80 ACh response; for EC50: positive allosteric modulation of EC20 acetylcholine response, CHO-K1 cells expressing mAChR M1, read-out: Potency (EC50). How it is done: Chinese hamster ovary (CHO-K1) cells stably expressing rat (r)M1 were purchased from the American Type Culture Collection and cultured according to their indicated protocol. […] To make stable rM2, hM2, rM3, hM4, and rM4 cell lines for use in calcium mobilization assays, these cells also were stably transfected with a chimeric G-protein (Gqi5) (provided by B. R. Conklin, University of California, San Francisco) using Lipofectamine 2000. rM1, hM1, rM3, hM3, rM5, and hM5 cells were grown in Ham's F-12 medium containing 10% heat-inactivated fetal bovine serum (FBS), 20 mM HEPES, and 50 μg/mL G418 sulfate. rM2-Gqi5, hM2-Gqi5, and hM4-Gqi5 cells were grown in the same medium also containing 500 μg/mL Hygromycin B. Stable rM4-Gqi5 cells were grown in DMEM containing 10% heat-inactivated FBS, 20 mM HEPES, 400 μg/mL G418 sulfate, and 500 μg/mL Hygromycin B.
For high throughput measurement of agonist-evoked increases in intracellular calcium, CHO-K1 cells stably expressing muscarinic receptors were plated in growth medium lacking G418 and hygromycin at 15,000 cells/20 μL/well in Greiner 384-well black-walled, tissue culture (TC)-treated, clear-bottom plates (VWR). Cells were incubated overnight at 37° C. and 5% CO2. […] Compound master plates were formatted in an 11 point CRC format (1:3 dilutions) in 100% DMSO with a starting concentration of 10 mM using the BRAVO liquid handler (Agilent). Test compound CRCs were then transferred to daughter plates (240 nL) using the Echo acoustic plate reformatter (Labcyte, Sunnyvale, Calif.) and then diluted into assay buffer (40 μL) to a 2× stock using a Thermo Fisher Combi (Thermo Fisher Scientific, Waltham, Mass.).
Calcium flux was measured using the Functional Drug Screening System (FDSS) 6000 (Hamamatsu Corporation, Tokyo, Japan) as an increase in the fluorescent static ratio. Compounds were applied to cells (20 μL, 2×) using the automated system of the FDSS 6000 at 4 s into the 300 s protocol and the data were collected at 1 Hz. […] Agonist activity was analyzed as a concentration-dependent increase in calcium mobilization upon compound addition. Positive allosteric modulator activity was analyzed as a concentration-dependent increase in the EC20 acetylcholine response. Antagonist activity was analyzed as a concentration-dependent decrease in the EC80 acetylcholine response. Concentration-response curves were generated using a four-parameter logistical equation in XLfit curve fitting software (IDBS, Bridgewater, N.J.) for Excel (Microsoft, Redmond, Wash.) or Prism (GraphPad Software, Inc., San Diego, Calif.).
The calcium mobilization assay was also used to determine “efficacy”. In the context of the assays carried out for the data in Table I, “efficacy” (% ACh at 30 μM) is defined as the maximal response in the calcium flux as determined by the sigmoidal curve fit of the concentration response curve, or in the absence of an acceptable curve fit, the response recorded at 30 μM test compound, stated as a percentage of the response elicited by a concentration of Ach that induces approximately 80% of a maximal (i.e. saturating) ACh response.

The structures appear in SMILES notation.

As to `Cc1cc(NC(=O)CS(=O)(=O)c2cn(Cc3cccc(-c4ccncc4)c3)c3cc(F)cc(F)c23)no1` [compound 2, 2-((4,6-difluoro-1-(3-(pyridin-4-yl)benzyl)-1H-indol-3-yl)sulfonyl)-N-(5-methylisoxazol-3-yl)acetamide], the “Efficacy (% ACh maximum at 30 μM)” value is 66% and the EC50 came to 1.2 µM.

On to `O=C(CS(=O)(=O)c1cn(Cc2cccc(-c3ccc(F)nc3)c2)c2cc(F)cc(F)c12)Nc1ccccn1` [compound 27, 2-((4,6-difluoro-1-(3-(6-fluoropyridin-3-yl)benzyl)-1H-indol-3-yl)sulfonyl)-N-(pyridin-2-yl)acetamide], for which the “Efficacy (% ACh maximum at 30 μM)” value was 42% and the EC50 turned out to be 5.2 µM.

Take `O=C(CS(=O)(=O)c1cn(Cc2cccc(-c3cncnc3)c2)c2cc(F)cc(F)c12)Nc1ccccn1` [compound 36, 2-((4,6-difluoro-1-(3-(pyrimidin-5-yl)benzyl)-1H-indol-3-yl)sulfonyl)-N-(pyridin-2-yl)acetamide]: the “Efficacy (% ACh maximum at 30 μM)” value was determined as 45% and the EC50 was more than 10 µM.

For the compound `Cc1cc(NC(=O)CS(=O)(=O)c2cn(Cc3cccc(Cl)c3F)c3ccccc23)no1` [compound 26, 2-((1-(3-chloro-2-fluorobenzyl)-1H-indol-3-yl)sulfonyl)-N-(5-methylisoxazol-3-yl)acetamide], the “Efficacy (% ACh maximum at 30 μM)” value is listed as 56% and the EC50 turned out to be 5.1 µM.

For the compound `Cc1cc(NC(=O)CS(=O)(=O)c2cn(Cc3cccc(Cl)c3)c3ccccc23)no1` [compound 32, 2-((1-(3-chlorobenzyl)-1H-indol-3-yl)sulfonyl)-N-(5-methylisoxazol-3-yl)acetamide], the “Efficacy (% ACh maximum at 30 μM)” value stood at 96% and the EC50 amounted to 5.82 µM.

With `Cc1cc(NC(=O)C(Cc2ccc(F)cc2F)S(=O)(=O)c2cn(Cc3ccc(F)cc3F)c3ccccc23)no1` (stereo not shown) [compound 71, 3-(2,4-difluorophenyl)-2-{1-[(2,4-difluorophenyl)methyl]-1H-indole-3-sulfonyl}-N-(5-methyl-1,2-oxazol-3-yl)propanamide], the EC50 was more than 10 µM.

Consider `Cc1cc(NC(=O)CS(=O)(=O)c2cn(Cc3cccc(-c4ccc(N5CCCC5)nc4)c3)c3ccccc23)no1` [compound 67, N-(5-methyl-1,2-oxazol-3-yl)-2-[1-({3-[6-(pyrrolidin-1-yl)pyridin-3-yl]phenyl}methyl)-1H-indole-3-sulfonyl]acetamide], for which the EC50 was more than 10 µM.

For `Cc1cc(NC(=O)C[S+]([O-])c2cn(Cc3cccc(Cl)c3)c3ccccc23)no1` (stereo not shown) [compound 29, 2-((1-(3-chlorobenzyl)-1H-indol-3-yl)sulfinyl)-N-(5-methylisoxazol-3-yl)acetamide], the “Efficacy (% ACh maximum at 30 μM)” value worked out at 93% and the EC50 was 5.23 µM.

Regarding `O=C(CS(=O)(=O)c1cn(Cc2cccc(-c3cccnc3)c2)c2cc(F)cc(F)c12)Nc1ccccn1` [compound 25, 2-((4,6-difluoro-1-(3-(pyridin-3-yl)benzyl)-1H-indol-3-yl)sulfonyl)-N-(pyridin-2-yl)acetamide], the “Efficacy (% ACh maximum at 30 μM)” value is recorded as 57% and the EC50 came to 4.6 µM.

Consider `Cc1cc(NC(=O)CSc2cn(Cc3ccccc3Cl)c3ccccc23)no1` [compound 42, 2-({1-[(2-chlorophenyl)methyl]-1H-indol-3-yl}sulfanyl)-N-(5-methyl-1,2-oxazol-3-yl)acetamide], for which the EC50 is more than 10 µM.

Take `Cc1cc(NC(=O)CS(=O)(=O)c2cn(Cc3cccc(-c4ccc(N5CCOCC5)nc4)c3)c3ccccc23)no1` [compound 72, N-(5-methyl-1,2-oxazol-3-yl)-2-[1-({3-[6-(morpholin-4-yl)pyridin-3-yl]phenyl}methyl)-1H-indole-3-sulfonyl]acetamide]: the EC50 is more than 10 µM.

Regarding `Cc1cc(NC(=O)CS(=O)(=O)c2cn(Cc3ccc(Br)cc3F)c3ccccc23)no1` [compound 60, 2-{1-[(4-bromo-2-fluorophenyl)methyl]-1H-indole-3-sulfonyl}-N-(5-methyl-1,2-oxazol-3-yl)acetamide], the EC50 is more than 10 µM.
